We go through 14 molecules from ChEMBL document CHEMBL1201862, “PubChem BioAssay data set” (2004).

Test systems include MOLT-4; M19-MEL; UACC-62; KM12; RXF 393; NCI-H23; UO-31; CCRF-CEM; OVCAR-3; U-251; A549; SR; RPMI-8226; HCT-15; UACC-257.
Common to all, as to test: growth of human tumour cells (NCI), 48 h

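96-well plates; 48 h exposure; 5 concentrations. Endpoints by linear interpolation between flanking doses. Not reached: highest tested concentration assigned. GI50 marks 50% less growth.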 Calls of active or inactive are those of the source. Cut-off read from the data, not from the text of the source: active = GI50 up to about 1.1 µM and inactive = higher.

On to `O=C1C(c2ccccc2)=[N+]([O-])c2cc([N+](=O)[O-])c(/C(Cl)=C/c3ccccc3)cc21`, for which the GI50 is 13.9 µM (inactive) in the experiment with MOLT-4; 15.3 µM (inactive) in the experiment on M19-MEL; 30.6 µM (inactive) with UACC-62; 22.8 µM (inactive) in the experiment with KM12; 22.9 µM (inactive) in the experiment on RXF 393; 22.7 µM (inactive) with NCI-H23. The GI50 with UO-31 was 41.8 µM (inactive); in the experiment with CCRF-CEM it was 10.5 µM (inactive); in the experiment with OVCAR-3, 13.5 µM (inactive); in the experiment with U-251, 18.6 µM (inactive); with A549 it was 40.1 µM (inactive); with SR, 17.9 µM (inactive). Further, in the experiment on RPMI-8226, the GI50 is 13.9 µM (inactive).

`COC(=O)c1ccc(/N=N/N(C)CO)cc1`: the GI50 with HCT-15 was over 100 µM; in the experiment on MOLT-4, > 100 µM (inactive); in the experiment with M19-MEL, > 100 µM (inactive); with UACC-62, 51.1 µM (inactive); in the experiment with KM12 it was > 100 µM (inactive); with RXF 393 it was 59.6 µM (inactive). In addition, the GI50 with NCI-H23 is > 100 µM (inactive); in the experiment with UO-31 it was > 100 µM (inactive); in the experiment on CCRF-CEM, > 100 µM (inactive); in the experiment on OVCAR-3, 91.4 µM (inactive); with U-251 it was 48.6 µM (inactive); in the experiment on UACC-257 it was > 100 µM (inactive). The GI50 is > 100 µM (inactive) with A549, 44.3 µM (inactive) with SR and > 100 µM (inactive) in the experiment on RPMI-8226.

With `C=C1CCCC2OC(OC)CCC12` (centres undefined), the GI50 was over 100 µM with HCT-15; > 100 µM (inactive) in the experiment on MOLT-4; > 100 µM (inactive) with M19-MEL; > 100 µM (inactive) with UACC-62; > 100 µM (inactive) with KM12; > 100 µM (inactive) with RXF 393. Also, the GI50 with NCI-H23, in the experiment on UO-31, with CCRF-CEM, in the experiment on OVCAR-3, with U-251 and in the experiment with UACC-257 was > 100 µM (inactive) in each case. In addition, the GI50 with A549, in the experiment on SR and in the experiment on RPMI-8226 was > 100 µM (inactive) throughout.

For `O=C1CSC(Cc2nc3ccccc3[nH]2)=N1`, the GI50 with HCT-15 is 17.5 µM; with MOLT-4, 9.98 µM (inactive); in the experiment with M19-MEL, 7.03 µM (inactive); in the experiment with UACC-62 it was 15.1 µM (inactive); in the experiment with KM12, 17.6 µM (inactive); in the experiment on RXF 393 it was 18.7 µM (inactive). Moreover, the GI50 in the experiment on NCI-H23 is 18.6 µM (inactive); in the experiment with UO-31, 20.6 µM (inactive); in the experiment on CCRF-CEM, 6.4 µM (inactive); in the experiment on OVCAR-3 it was 14.3 µM (inactive); in the experiment on U-251 it was 17.3 µM (inactive); with UACC-257, 19.7 µM (inactive). Further, the GI50 was 21.6 µM (inactive) in the experiment on A549, 5.83 µM (inactive) with SR and 13.7 µM (inactive) in the experiment on RPMI-8226.

Take `O=C(O)CCc1cccc2c1oc1c(CCC(=O)O)cccc12`: the GI50 in the experiment on HCT-15 was over 100 µM; in the experiment on MOLT-4 it was > 100 µM (inactive); in the experiment with M19-MEL, > 100 µM (inactive); with UACC-62 it was > 100 µM (inactive); in the experiment with KM12, > 100 µM (inactive); with RXF 393 it was > 100 µM (inactive). For the same molecule, the GI50 in the experiment with NCI-H23, in the experiment on UO-31, with CCRF-CEM, in the experiment with OVCAR-3, in the experiment on U-251 and with UACC-257 was > 100 µM (inactive) throughout. Moreover, the GI50 in the experiment on A549, in the experiment with SR and with RPMI-8226 was > 100 µM (inactive) throughout.

For the molecule `CCC(COC(=O)CC[C@@H](NC(=O)C(C)NC(=O)C(C)OC1C(O)C(CO)OC(OCc2ccccc2)C1NC(C)=O)C(N)=O)NC1c2ccccc2Nc2cccc([N+](=O)[O-])c21` (some centres undefined), the GI50 with HCT-15 is over 100 µM; in the experiment on MOLT-4, > 100 µM (inactive); in the experiment with M19-MEL, > 100 µM (inactive); with UACC-62 it was > 100 µM (inactive); in the experiment on KM12, > 100 µM (inactive); in the experiment with RXF 393, 37.4 µM (inactive). In addition, the GI50 with NCI-H23 was > 100 µM (inactive); in the experiment on UO-31 it was > 100 µM (inactive); in the experiment on CCRF-CEM it was > 100 µM (inactive); in the experiment with OVCAR-3 it was 80.2 µM (inactive); with U-251, > 100 µM (inactive); in the experiment with UACC-257, > 100 µM (inactive). Further, the GI50 with A549, with SR and in the experiment on RPMI-8226 was > 100 µM (inactive) in each case.

`COC(c1cccc(C(O)(C(F)(F)F)C(F)(F)F)c1)(C(F)(F)F)C(F)(F)F`: the GI50 in the experiment on HCT-15 is 19.1 µM; with MOLT-4 it was 22 µM (inactive); with M19-MEL it was 16.1 µM (inactive); in the experiment with UACC-62, 14.3 µM (inactive); in the experiment on KM12 it was 19.5 µM (inactive); in the experiment with RXF 393, 20.4 µM (inactive). The GI50 was 19.7 µM (inactive) in the experiment on NCI-H23; 19.9 µM (inactive) in the experiment on UO-31; 23.4 µM (inactive) in the experiment with OVCAR-3; 18.3 µM (inactive) in the experiment on U-251; 27.1 µM (inactive) in the experiment with UACC-257; 16.6 µM (inactive) in the experiment on A549. The GI50 in the experiment with SR is 32.1 µM (inactive).

Take `Cc1nc(=O)n2c(c1C(=O)Nc1ccc(Cl)cc1)NCCC2`: the GI50 is over 100 µM in the experiment with HCT-15; > 100 µM (inactive) with MOLT-4; > 100 µM (inactive) in the experiment on M19-MEL; > 100 µM (inactive) with UACC-62; > 100 µM (inactive) in the experiment on KM12; > 100 µM (inactive) in the experiment on RXF 393. Besides, the GI50 in the experiment with NCI-H23, in the experiment with CCRF-CEM, in the experiment on OVCAR-3, in the experiment with U-251, in the experiment with A549 and in the experiment on SR was > 100 µM (inactive) each time. The GI50 in the experiment on RPMI-8226 is > 100 µM (inactive).

Consider `O=c1[nH]cc(COCC(F)(F)C(F)(F)C(F)(F)C(F)F)c(=O)[nH]1`, for which the GI50 in the experiment on HCT-15 is over 100 µM; with MOLT-4 it was > 100 µM (inactive); in the experiment on M19-MEL it was > 100 µM (inactive); in the experiment on UACC-62, > 100 µM (inactive); with KM12, > 100 µM (inactive); in the experiment with RXF 393 it was > 100 µM (inactive). In addition, the GI50 in the experiment on NCI-H23, in the experiment on UO-31, in the experiment with CCRF-CEM, in the experiment with OVCAR-3, in the experiment on U-251 and in the experiment with UACC-257 was > 100 µM (inactive) in each case. Besides, the GI50 in the experiment with A549, with SR and with RPMI-8226 was > 100 µM (inactive) each time.

On to `O=C(CSSCC(=O)Nc1ccc(Br)cc1)Nc1ccc(Br)cc1`, for which the GI50 is 19.6 µM with HCT-15; 14.1 µM (inactive) in the experiment with MOLT-4; 18.5 µM (inactive) in the experiment with M19-MEL; 15.9 µM (inactive) in the experiment on UACC-62; 19.1 µM (inactive) in the experiment on KM12; 18.7 µM (inactive) with RXF 393. Moreover, the GI50 was 19.3 µM (inactive) in the experiment on NCI-H23; 17.7 µM (inactive) in the experiment on UO-31; 18.1 µM (inactive) with OVCAR-3; 14.4 µM (inactive) with U-251; 20.7 µM (inactive) with UACC-257; 16.8 µM (inactive) in the experiment on A549. Also, the GI50 with SR was 10.3 µM (inactive); in the experiment on RPMI-8226, 21.6 µM (inactive).

With `CC(=O)Nc1ccc(C(=O)NN2C(=O)C(Cl)C2c2cc(Br)cc(Br)c2O)cc1` (centres undefined), the GI50 was over 100 µM in the experiment on HCT-15; > 100 µM (inactive) in the experiment on MOLT-4; > 100 µM (inactive) with M19-MEL; > 100 µM (inactive) in the experiment on UACC-62; > 100 µM (inactive) in the experiment on KM12; > 100 µM (inactive) in the experiment with NCI-H23. For the same molecule, the GI50 with UO-31, in the experiment on CCRF-CEM, in the experiment with OVCAR-3, in the experiment on U-251, with UACC-257 and in the experiment with A549 was > 100 µM (inactive) each time. For the same molecule, the GI50 with SR and in the experiment with RPMI-8226 was > 100 µM (inactive) each time.

Consider `Cc1ccccc1NC(=O)CSc1nnc(-c2ccc(/N=C\c3ccc(Cl)cc3)cc2)o1`, for which the GI50 was over 100 µM with HCT-15; > 100 µM (inactive) with MOLT-4; > 100 µM (inactive) in the experiment with M19-MEL; > 100 µM (inactive) in the experiment with UACC-62; > 100 µM (inactive) in the experiment on KM12; > 100 µM (inactive) in the experiment with RXF 393. Also, the GI50 in the experiment with NCI-H23, with UO-31, in the experiment on CCRF-CEM, in the experiment on U-251, in the experiment with UACC-257 and with A549 was > 100 µM (inactive) throughout. Also, the GI50 in the experiment with SR and in the experiment on RPMI-8226 was > 100 µM (inactive) throughout.

On to `Cc1cc(C)n(CCNCCn2nc(C)cc2C)n1`, for which the GI50 in the experiment with MOLT-4, with M19-MEL, in the experiment on UACC-62, with KM12, in the experiment on RXF 393 and with NCI-H23 was > 100 µM (inactive) in each case. Besides, the GI50 with UO-31, with CCRF-CEM, with OVCAR-3, in the experiment with U-251, in the experiment with UACC-257 and in the experiment on A549 was > 100 µM (inactive) in each case. Further, the GI50 in the experiment on SR and in the experiment on RPMI-8226 was > 100 µM (inactive) throughout.

`CC(=O)c1ccc(NC(=O)C(=O)C(C#N)CC(C)(C)C=O)cc1` (centres undefined): the GI50 in the experiment on HCT-15 was over 100 µM; with MOLT-4 it was > 100 µM (inactive); in the experiment on M19-MEL it was > 100 µM (inactive); in the experiment on UACC-62 it was > 100 µM (inactive); in the experiment on KM12, > 100 µM (inactive); in the experiment with NCI-H23 it was > 100 µM (inactive). Moreover, the GI50 with UO-31, with CCRF-CEM, in the experiment on OVCAR-3, with U-251, with UACC-257 and in the experiment with A549 was > 100 µM (inactive) each time. In addition, the GI50 in the experiment on SR and in the experiment with RPMI-8226 was > 100 µM (inactive) throughout.
